Experimental data as given in patent US11584754B2, “Derivatives of thailanstatin A, methods of treatment and methods of synthesis thereof” (WILLIAM MARSH RICE UNIVERSITY, priority 2016, dated 2023).
Where two headings read alike, the source gives them in different places. Non-standard residues stand in square brackets, D forms with d. Residues, ends and D or L forms follow the SMILES beside them. *: point of attachment. Dolaproine = CO[C@@H]([C@@H]1CCCN1)[C@@H](C)C(=O)O; Dil = CC[C@H](C)[C@H](NC)[C@@H](CC(=O)O)OC; X1 = C[C@@H](N*)[C@@H](O)c1ccccc1; NMeV = CN[C@H](C(=O)O)C(C)C

Key:
Assay type in all cases: cell-based, human
MES SA = assay: Cytotoxicity assay (72 hour killing assay, CellTiter-Glo), MES SA; conditions: read-out: Cancer cell lines IC50 (nM) MES SA
Protocol: (§1) Cells were cultured in a T75 flask to ˜50-80% confluency and harvested with trypsin into a single cell suspension. Five hundred (500) cells per well were seeded in tissue culture plates in 50 μL/well culture media and incubated at 37° C. for 18-24 h. Compounds were diluted as 400× final desired concentrations in DMSO. Serial dilutions in DMSO were then diluted in culture media for a final DMSO concentration of 0.25% and 50 μL/well of the final dilution was added to the cells (Vf=100 μL). Upon plating and treatment, cells were returned to the incubator for an additional 72 hours. CellTiter-Glo reagent was prepared per manufacturer's instructions and added at 100 μL/well to the cultures. CellTiter-Glo allows for relative enumeration of metabolically active cells by quantifying intracellular ATP concentrations. After 5 minutes of incubation with CellTiter-Glo at ambient room temperature, 125 μL/well of the Cell Titer glo/cell lysate solution was transferred into black assay plates, which were then read in a luminometer within 30 minutes.
(§2) MES SA and MES SA/Dx cells are uterine sarcoma. MES SA Dx cell line was generated from MES SA to achieve upregulation of MDR1.

MES SA DX = assay: Cytotoxicity assay (72 hour killing assay, CellTiter-Glo), MES SA DX; conditions: read-out: Cancer cell lines IC50 (nM) MES SA DX
Protocol: as §1, §2

HEK 293T = assay: Cytotoxicity assay (72 hour killing assay, CellTiter-Glo), HEK 293T; conditions: read-out: Cancer cell lines IC50 (nM) HEK 293T
Protocol: as §1
293T cells are human embryonic kidney cell line.

Row | SMILES | IC50 (MES SA; Homo sapiens, MES-SA, 72 h) [nM] | IC50 (MES SA DX; Homo sapiens, MES-SA, 72 h) [nM] | IC50 (HEK 293T; Homo sapiens, HEK-293T, 72 h) [nM] | IC50 (MES SA; 50% inhibitory concentration against cell growth, human uterine sarcoma cell line, 72 hours) [nM] | IC50 (MES SA DX; 50% inhibitory concentration against cell growth, MES SA cell line with marked multidrug resistance, 72 hours) [nM] | IC50 (HEK 293T; 50% inhibitory concentration against cell growth, human embryonic kidney cancer cell line, 72 hours) [nM] | IC50 (MES SA; MES-SA, 50% inhibitory concentration against cell growth, human uterine sarcoma cell line, 72 hours) [nM] | IC50 (MES SA DX; Homo sapiens, 50% inhibitory concentration against cell growth, MES SA cell line with marked multidrug resistance, 72 hours) [nM]
1 | CC(=O)O[C@@H](C)/C=C\C(=O)N[C@@H]1C[C@H](C)[C@H](C/C=C(C)/C=C/[C@H]2O[C@H](CC(=O)O)C[C@@]3(CO3)[C@@H]2O)O[C@@H]1C [Compound 1, Thailanstatin A] | 419 | > 400 | 296 | – | – | – | – | –
2 | COC(=O)C[C@@H]1C[C@@]2(CO2)[C@H](O)[C@@H](/C=C/C(C)=C/C[C@@H]2O[C@H](C)[C@H](NC(=O)/C=C\[C@H](C)OC(=O)N3CCCCC3)C[C@H]2C)O1 [Compound 38, (2S,3Z)-5-{[(2R,3R,5R,6S)-6-{(2E,4E)-5-[(3R,4R,5R,7S)-4-Hydroxy-7-(2-methoxy-2-oxoethyl)-1,6-dioxaspiro[2.5]oct-5-yl]-3-methylpenta-2,4-dien-1-yl}-2,5-dimethyltetrahydro-2H-pyran-3-yl]-amino}-5-oxopent-3-en-2-yl piperidine-1-carboxylate] | > 2500 | > 2500 | > 400 | – | – | – | – | –
3 | CCOC(=O)CCNC(=O)C[C@@H]1C[C@@]2(CO2)[C@H](O)[C@@H](/C=C/C(C)=C/C[C@@H]2O[C@H](C)[C@H](NC(=O)/C=C\[C@H](C)OC(C)=O)C[C@H]2C)O1 [Compound 33, Ethyl 3-({[(3R,5S,7R,8R)-7-{(1E,3E)-5-[(2S,3R,5R,6R)-5-{[(2Z,4S)-4-acetoxypent-2-enoyl]amino}-3,6-dimethyltetrahydro-2H-pyran-2-yl]-3-methylpenta-1,3-dien-1-yl}-8-hydroxy-1,6-dioxaspiro[2.5]oct-5-yl]acetyl}amino)propanoate] | 512 | > 2500 | 1480 | – | – | – | – | –
4 | COC(=O)C[C@@H]1C[C@@]2(CO2)[C@H](O)[C@@H](/C=C/C(C)=C/C[C@@H]2O[C@H](C)[C@H](NC(=O)/C=C\[C@H](C)OC(=O)N3CCCCC3)C[C@@H]2C)O1 [Compound 42] | 3.68 | 3.45 | 0.24 | – | – | – | – | –
5 | CC[C@H](C)[C@@H]([C@@H](CC(=O)N1CCC[C@H]1[C@H](OC)[C@@H](C)C(=O)N[C@H](C)[C@@H](O)c1ccccc1)OC)N(C)C(=O)[C@@H](NC(=O)[C@@H](NC)C(C)C)C(C)C [MMAE, reference compound] (H-[NMeV]V[Dil][Dolaproine]-X1) | – | – | – | 0.096 | 88.2 | 0.068 | – | –
6 | COC(=O)C[C@@H]1C[C@@]2(CO2)[C@H](O)[C@@H](/C=C/C(C)=C\C[C@@H]2O[C@H](C)[C@H](NC(=O)/C=C\[C@H](C)OC(C)=O)C[C@H]2C)O1 [Compound 47, Methyl [(3R,5S,7R,8R)-7-{(1E,3Z)-5-[(2S,3R,5R,6R)-5-{[(2Z,4S)-4-acetoxypent-2-enoyl]amino}-3,6-dimethyltetrahydro-2H-pyran-2-yl]-3-methylpenta-1,3-dien-1-yl}-8-hydroxy-1,6-dioxaspiro[2.5]-oct-5-yl]acetate] | > 1000 | > 1000 | > 1000 | – | – | – | – | –
7 | COC(=O)C[C@@H]1C[C@@]2(CO2)[C@H](O)[C@@H](/C=C/C(C)=C/C[C@@H]2O[C@H](C)[C@H](NC(=O)/C=C\[C@H](C)OC(=O)N(C)C)C[C@@H]2C)O1 [Compound 36, Methyl [(3R,5S,7R,8R)-7-{(1E,3E)-5-[(2S,3S,5R,6R)-5-({(2Z,4S)-4-[(dimethylcarbamoyl)oxy]pent-2-enoyl}amino)-3,6-dimethyltetrahydro-2H-pyran-2-yl]-3-methylpenta-1,3-dien-1-yl}-8-hydroxy-1,6-dioxaspiro[2.5]oct-5-yl]acetate] | 0.92 | 1.09 | 0.08 | – | – | – | – | –
8 | CC(=O)O[C@H]1C(=O)[C@@]2(C)[C@H]([C@H](OC(=O)c3ccccc3)[C@]3(O)C[C@H](OC(=O)[C@H](O)[C@@H](NC(=O)c4ccccc4)c4ccccc4)C(C)=C1C3(C)C)[C@]1(OC(C)=O)CO[C@@H]1C[C@@H]2O [paclitaxel, reference compound] | – | – | – | – | – | – | 2.47 | > 400
9 | COC(=O)C[C@@H]1C[C@@]2(CO2)[C@H](O)[C@@H](/C=C/C(C)=C/C[C@@H]2O[C@H](C)[C@H](NC(=O)/C=C\[C@H](C)OC(=O)N3CCOCC3)C[C@H]2C)O1 [Compound 40] | > 2500 | > 2500 | > 400 | – | – | – | – | –
10 | COC(=O)C[C@@H]1C[C@@]2(CO2)[C@H](O)[C@@H](/C=C/C(C)=C/C[C@@H]2O[C@H](C)[C@H](NC(=O)/C=C\[C@H](C)OC(C)=O)C=C2C)O1 [Compound 32] | > 1000 | > 1000 | > 1000 | – | – | – | – | –
